# Data taken from the supplement of paper PMC10307832.
# Tests used:
# Assay in all cases: relative viability (nuclei count vs DMSO), 5 days (fraction); higher = more cells survive
# A-427 = test system: A-427
# Procedure, shortened: (§1)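 Five library-drug doses in √10 steps were combined with a fixed anchor-drug dose, or a single drug was given alone, by pin tool to lung cancer cell lines in 1536-well plates the day after seeding. Nuclei were stained and counted after 5 days. Relative viability is the nuclei count in treated wells over that in vehicle wells, taken as the median of duplicate plates.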
# ABC-1 = test system: ABC-1
# Procedure, shortened: as §1
# EMC-BAC-2 = test system: EMC-BAC-2
# Procedure, shortened: as §1
# HARA = test system: HARA
# Procedure, shortened: as §1
# HOP-62 = test system: HOP-62
# Procedure, shortened: as §1
# LK-2 = test system: LK-2
# Procedure, shortened: as §1
# LXF-289 = test system: LXF-289
# Procedure, shortened: as §1
# NCI-H1792 = test system: NCI-H1792
# Procedure, shortened: as §1
# NCI-H1944 = test system: NCI-H1944
# Procedure, shortened: as §1
# NCI-H1993 = test system: NCI-H1993
# Procedure, shortened: as §1
# NCI-H2009 = test system: NCI-H2009
# Procedure, shortened: as §1
# NCI-H2170 = test system: NCI-H2170
# Procedure, shortened: as §1
# NCI-H2228 = test system: NCI-H2228
# Procedure, shortened: as §1
# NCI-H3122 = test system: NCI-H3122
# Procedure, shortened: as §1
# NCI-H322M = test system: NCI-H322M
# Procedure, shortened: as §1
# NCI-H522 = test system: NCI-H522
# Procedure, shortened: as §1
# NCI-H596 = test system: NCI-H596
# Procedure, shortened: as §1
# NCI-H727 = test system: NCI-H727
# Procedure, shortened: as §1
# PC-3 [JPC-3] = test system: PC-3 [JPC-3]
# Procedure, shortened: as §1
# SK-MES-1 = test system: SK-MES-1
# Procedure, shortened: as §1
# SW 1573 = test system: SW 1573
# Procedure, shortened: as §1
# SW 900 = test system: SW 900
# Procedure, shortened: as §1
compound,measurement,setting,value
CCN(CC)CCCCNc1ncc2cc(-c3cc(OC)cc(OC)c3)c(NC(=O)NC(C)(C)C)nc2n1 + Cc1nc(Nc2ncc(C(=O)Nc3c(C)cccc3Cl)s2)cc(N2CCN(CCO)CC2)n1 [Dasatinib] (partner 0.075 µM),relative viability,A-427; first compound 0.01 µM,0.749
same,relative viability,A-427; first compound 0.03162 µM,0.647
same,relative viability,A-427; first compound 0.1 µM,0.924
same,relative viability,A-427; first compound 0.3162 µM,0.646
same,relative viability,A-427; first compound 1 µM,0.565
same,relative viability,ABC-1; first compound 0.01 µM,0.617
same,relative viability,ABC-1; first compound 0.03162 µM,0.541
same,relative viability,ABC-1; first compound 0.1 µM,0.618
same,relative viability,ABC-1; first compound 0.3162 µM,0.548
same,relative viability,ABC-1; first compound 1 µM,0.535
same,relative viability,EMC-BAC-2; first compound 0.01 µM,0.189
same,relative viability,EMC-BAC-2; first compound 0.03162 µM,0.359
same,relative viability,EMC-BAC-2; first compound 0.1 µM,0.304
same,relative viability,EMC-BAC-2; first compound 0.3162 µM,0.348
same,relative viability,EMC-BAC-2; first compound 1 µM,0.3
same,relative viability,HARA; first compound 0.01 µM,0.284
same,relative viability,HARA; first compound 0.03162 µM,0.246
same,relative viability,HARA; first compound 0.1 µM,0.312
same,relative viability,HARA; first compound 0.3162 µM,0.142
same,relative viability,HARA; first compound 1 µM,0.237
same,relative viability,HOP-62; first compound 0.01 µM,0.67
same,relative viability,HOP-62; first compound 0.03162 µM,0.726
same,relative viability,HOP-62; first compound 0.1 µM,0.828
same,relative viability,HOP-62; first compound 0.3162 µM,0.707
same,relative viability,HOP-62; first compound 1 µM,0.417
same,relative viability,LK-2; first compound 0.01 µM,0.29
same,relative viability,LK-2; first compound 0.03162 µM,0.267
same,relative viability,LK-2; first compound 0.1 µM,0.254
same,relative viability,LK-2; first compound 0.3162 µM,0.188
same,relative viability,LK-2; first compound 1 µM,0.212
same,relative viability,LXF-289; first compound 0.01 µM,0.209
same,relative viability,LXF-289; first compound 0.03162 µM,0.249
same,relative viability,LXF-289; first compound 0.1 µM,0.266
same,relative viability,LXF-289; first compound 0.3162 µM,0.167
same,relative viability,LXF-289; first compound 1 µM,0.0987
same,relative viability,NCI-H1792; first compound 0.01 µM,0.734
same,relative viability,NCI-H1792; first compound 0.03162 µM,0.849
same,relative viability,NCI-H1792; first compound 0.1 µM,0.837
same,relative viability,NCI-H1792; first compound 0.3162 µM,0.671
same,relative viability,NCI-H1792; first compound 1 µM,0.475
same,relative viability,NCI-H1944; first compound 0.01 µM,0.197
same,relative viability,NCI-H1944; first compound 0.03162 µM,0.212
same,relative viability,NCI-H1944; first compound 0.1 µM,0.22
same,relative viability,NCI-H1944; first compound 0.3162 µM,0.236
same,relative viability,NCI-H1944; first compound 1 µM,0.196
same,relative viability,NCI-H1993; first compound 0.01 µM,0.31
same,relative viability,NCI-H1993; first compound 0.03162 µM,0.604
same,relative viability,NCI-H1993; first compound 0.1 µM,0.611
same,relative viability,NCI-H1993; first compound 0.3162 µM,0.604
same,relative viability,NCI-H1993; first compound 1 µM,0.536
same,relative viability,NCI-H2009; first compound 0.01 µM,0.299
same,relative viability,NCI-H2009; first compound 0.03162 µM,0.316
same,relative viability,NCI-H2009; first compound 0.1 µM,0.347
same,relative viability,NCI-H2009; first compound 0.3162 µM,0.292
same,relative viability,NCI-H2009; first compound 1 µM,0.246
same,relative viability,NCI-H2170; first compound 0.01 µM,0.537
same,relative viability,NCI-H2170; first compound 0.03162 µM,0.574
same,relative viability,NCI-H2170; first compound 0.1 µM,0.643
same,relative viability,NCI-H2170; first compound 0.3162 µM,0.818
same,relative viability,NCI-H2170; first compound 1 µM,0.539
same,relative viability,NCI-H2228; first compound 0.01 µM,0.586
same,relative viability,NCI-H2228; first compound 0.03162 µM,0.589
same,relative viability,NCI-H2228; first compound 0.1 µM,0.793
same,relative viability,NCI-H2228; first compound 0.3162 µM,0.536
same,relative viability,NCI-H2228; first compound 1 µM,0.431
same,relative viability,NCI-H3122; first compound 0.01 µM,0.876
same,relative viability,NCI-H3122; first compound 0.03162 µM,0.914
same,relative viability,NCI-H3122; first compound 0.1 µM,0.939
same,relative viability,NCI-H3122; first compound 0.3162 µM,0.954
same,relative viability,NCI-H3122; first compound 1 µM,0.842
same,relative viability,NCI-H322M; first compound 0.01 µM,0.242
same,relative viability,NCI-H322M; first compound 0.03162 µM,0.246
same,relative viability,NCI-H322M; first compound 0.1 µM,0.244
same,relative viability,NCI-H322M; first compound 0.3162 µM,0.257
same,relative viability,NCI-H322M; first compound 1 µM,0.237
same,relative viability,NCI-H522; first compound 0.01 µM,0.862
same,relative viability,NCI-H522; first compound 0.03162 µM,1.01
same,relative viability,NCI-H522; first compound 0.1 µM,1
same,relative viability,NCI-H522; first compound 0.3162 µM,0.879
same,relative viability,NCI-H522; first compound 1 µM,0.79
same,relative viability,NCI-H596; first compound 0.01 µM,0.633
same,relative viability,NCI-H596; first compound 0.03162 µM,0.593
same,relative viability,NCI-H596; first compound 0.1 µM,0.585
same,relative viability,NCI-H596; first compound 0.3162 µM,0.393
same,relative viability,NCI-H596; first compound 1 µM,0.44
same,relative viability,NCI-H727; first compound 0.01 µM,0.177
same,relative viability,NCI-H727; first compound 0.03162 µM,0.424
same,relative viability,NCI-H727; first compound 0.1 µM,0.385
same,relative viability,NCI-H727; first compound 0.3162 µM,0.507
same,relative viability,NCI-H727; first compound 1 µM,0.351
same,relative viability,PC-3 [JPC-3]; first compound 0.01 µM,1.05
same,relative viability,PC-3 [JPC-3]; first compound 0.03162 µM,1.07
same,relative viability,PC-3 [JPC-3]; first compound 0.1 µM,1.06
same,relative viability,PC-3 [JPC-3]; first compound 0.3162 µM,1.08
same,relative viability,PC-3 [JPC-3]; first compound 1 µM,0.909
same,relative viability,SK-MES-1; first compound 0.01 µM,0.36
same,relative viability,SK-MES-1; first compound 0.03162 µM,0.375
same,relative viability,SK-MES-1; first compound 0.1 µM,0.407
same,relative viability,SK-MES-1; first compound 0.3162 µM,0.281
same,relative viability,SK-MES-1; first compound 1 µM,0.27
same,relative viability,SW 1573; first compound 0.01 µM,0.355
same,relative viability,SW 1573; first compound 0.03162 µM,0.537
same,relative viability,SW 1573; first compound 0.1 µM,0.457
same,relative viability,SW 1573; first compound 0.3162 µM,0.482
same,relative viability,SW 1573; first compound 1 µM,0.326
same,relative viability,SW 900; first compound 0.01 µM,0.346
same,relative viability,SW 900; first compound 0.03162 µM,0.673
same,relative viability,SW 900; first compound 0.3162 µM,0.345
same,relative viability,SW 900; first compound 1 µM,0.268
